According to PubChem BioAssay AID2060513 (Molecular Pharmacology Branch, DTP, NCI, 2025):

Tested on: 299254-011-R-J1-PDC complex spheroids viability
Test: Anticancer human tumor 299254-011-R-J1-PDC patient-derived melanoma cell line growth inhibition [GQUAD]
Conditions: for IC50: curve of first compound; for viability, T/C: stronger effect = lower value
Text: DNA G-quadruplex Stabilizer Agents in Combinations in Complex Spheroids
A high-throughput screen of multi-cell type tumor spheroids was designed to identify active combinations of DNA G-quadruplex stabilizer agents and targeted small molecules. Complex spheroids include a stromal component modeled by human endothelial cells (HUVEC) and fibroblasts modeled by human mesenchymal stem cells (MSCs). The concentration ranges selected for each drug and investigational agent were based upon clinically achievable concentrations if the clinical Cmax of the agent was known.
Compounds. The drugs and investigational agents: pidnarulex (CX-5461; NSC782164), APTO-253 (NSC789042), BRACO-19 (NSC847499), peposertib (NSC802822), ceralasertib (NSC780249), elimusertib (NSC800525), camonsertib (NSC841442), AZD-1390 (NSC803789), olaparib (NSC753686), talazoparib (NSC767125), ART-558 (NSC835418), sotorasib (NSC818433), MRTX-1133 (NSC836407), SN-38 (NSC673596), topotecan (NSC609699), etoposide (NSC141540), doxorubicin (NSC123127), gemcitabine (NSC613327), 5-fluorouracil (NSC19893), paclitaxel (NSC125973), vemurafenib (NSC761431), panobinostat (NSC761190), R-306465 (JNJ-16241199; NSC773264), adavosertib (NSC754352), TP-3654 (NSC805149), carboplatin (NSC241240), KSQ-4279 (NSC840948), and staurosporine (NSC755774) were obtained from the National Cancer Institute (NCI) Developmental Therapeutics Program Chemical Repository (34). The FDA-approved anticancer drug set is available from the NCI Developmental Therapeutics Program. […] The stock solutions were prepared in dimethyl sulfoxide (DMSO, Sigma-Aldrich, St. Louis, MO, cat. D2650) at 800-fold the tested concentration and stored at -70 degrees C prior to their use. All drugs and investigational agents were tested over a range starting from a high concentration at or near the clinical Cmax and decreasing in half-log increments. If the clinical Cmax for an agent had not been determined, the highest concentration tested was 10 microM.
2.3 Cell Culture. All cells were maintained in an incubator at 37 degrees C and 5% CO2 with 95% humidity. The PDC lines were cultured according to standard operating procedures established by the NCI PDMR. All PDCs were thawed and cultured in Matrigel-coated flasks prepared with a working solution of 1X Ham's F-12 nutrient mix, without supplementation (Invitrogen, cat. 11765054), 100 U/mL penicillin-streptomycin (Invitrogen, cat. 15140122), and 2.5% Matrigel (Corning Inc., cat. 354248) for the first three passages. The 857933-349-R-J2-PDC line was cultured in 6C/Colon 1B media, which includes advanced DMEM/F-12 (Thermo Fisher Scientific, cat. 12634028), 10 mM HEPES (Thermo Fisher Scientific, cat. 15630080), 1X GlutaMAX supplement (Thermo Fisher Scientific, cat. 35050061), 0.1 mg/mL primocin (InvivoGen, cat. ant-pm-2), 10% defined fetal bovine serum, heat inactivated (HyClone Laboratories Inc., cat. SH30070.03HI), 50% L-WRN conditioned media (ATCC, cat. CRL-3276), 1.25 mM N-Acetyl-L-cysteine (Sigma-Aldrich, cat. A9165), 10 mM nicotinamide (Sigma-Aldrich, cat. N0636), 1X B-27 supplement (Thermo Fisher Scientific, cat. 17504044), 1X N-2 supplement (Thermo Fisher Scientific, cat. 17502048), 10 microM Y-27632 dihydrochloride (Tocris Bioscience, cat. 1254), and 50 ng/mL human EGF recombinant protein (Thermo Fisher Scientific, cat. PHG0311). The 485176-168-R4-J1-PDC line was cultured in Panc media, which includes all 6C/Colon 1B media components plus 100 ng/mL human FGF-10 (Thermo Fisher Scientific, cat. 100-26), 500 nM SB-431542 (Selleckchem, cat. S1067), and gastrin (Tocris, cat. 3006).
[…]

[1] = second compound 0.0316 µM, first compound 0.0316 µM
[2] = second compound 0.0316 µM, first compound 0.1 µM
[3] = second compound 0.0316 µM, first compound 0.316 µM
[4] = second compound 0.0316 µM, first compound 1 µM
[5] = second compound 0.0316 µM, first compound 3.16 µM
[6] = second compound 0.0316 µM, first compound 10 µM
[7] = second compound 0.1 µM, first compound 0.0316 µM
[8] = second compound 0.1 µM, first compound 0.1 µM
[9] = second compound 0.1 µM, first compound 0.316 µM
[10] = second compound 0.1 µM, first compound 1 µM
[11] = second compound 0.1 µM, first compound 3.16 µM
[12] = second compound 0.1 µM, first compound 10 µM
[13] = second compound 0.316 µM, first compound 0.0316 µM
[14] = second compound 0.316 µM, first compound 0.1 µM
[15] = second compound 0.316 µM, first compound 0.316 µM
[16] = second compound 0.316 µM, first compound 1 µM
[17] = second compound 0.316 µM, first compound 3.16 µM
[18] = second compound 0.316 µM, first compound 10 µM
[19] = second compound 1 µM, first compound 0.0316 µM
[20] = second compound 1 µM, first compound 0.1 µM
[21] = second compound 1 µM, first compound 0.316 µM
[22] = second compound 1 µM, first compound 1 µM
[23] = second compound 1 µM, first compound 3.16 µM
[24] = second compound 1 µM, first compound 10 µM
[25] = second compound 3.16 µM, first compound 0.0316 µM
[26] = second compound 3.16 µM, first compound 0.1 µM
[27] = second compound 3.16 µM, first compound 0.316 µM
[28] = second compound 3.16 µM, first compound 1 µM
[29] = second compound 3.16 µM, first compound 3.16 µM
[30] = second compound 3.16 µM, first compound 10 µM
[31] = second compound 10 µM, first compound 0.0316 µM
[32] = second compound 10 µM, first compound 0.1 µM
[33] = second compound 10 µM, first compound 0.316 µM
[34] = second compound 10 µM, first compound 1 µM
[35] = second compound 10 µM, first compound 3.16 µM
[36] = second compound 10 µM, first compound 10 µM
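Also: spheroids exposed to the agents for seven days before readout.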
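For viability, T/C in this document: percent viability relative to DMSO vehicle control wells = 100%.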

COc1ccc([C@@H](O)c2cc(-c3ncnc4cc(N5CCOCC5)ccc34)c(F)cc2Cl)nn1 + Cc1[nH]c2ccc(F)cc2c1-c1nc2c3cccnc3c3ncccc3c2[nH]1
IC50 (second compound 0.0316 µM): > 10 µM | IC50 (second compound 0.1 µM): > 10 µM | IC50 (second compound 0.316 µM): 8.51 µM | IC50 (second compound 1 µM): 9.05 µM | IC50 (second compound 3.16 µM): 8.89 µM | IC50 (second compound 10 µM): 7.15 µM | viability, T/C [1]: 97.4% | viability, T/C [2]: 113% | viability, T/C [3]: 108% | viability, T/C [4]: 84.6% | viability, T/C [5]: 83.8% | viability, T/C [6]: 57.7% | viability, T/C [7]: 92% | viability, T/C [8]: 97.3% | viability, T/C [9]: 109% | viability, T/C [10]: 86.9% | viability, T/C [11]: 77.6% | viability, T/C [12]: 51% | viability, T/C [13]: 82.2% | viability, T/C [14]: 108% | viability, T/C [15]: 107% | viability, T/C [16]: 83.4% | viability, T/C [17]: 111% | viability, T/C [18]: 42.1% | viability, T/C [19]: 85.3% | viability, T/C [20]: 92.5% | viability, T/C [21]: 106% | viability, T/C [22]: 98.9% | viability, T/C [23]: 75.9% | viability, T/C [24]: 47.6% | viability, T/C [25]: 96.3% | viability, T/C [26]: 120% | viability, T/C [27]: 87.8% | viability, T/C [28]: 95% | viability, T/C [29]: 97.1% | viability, T/C [30]: 44.6% | viability, T/C [31]: 121% | viability, T/C [32]: 93.3% | viability, T/C [33]: 100% | viability, T/C [34]: 93.9% | viability, T/C [35]: 82.8% | viability, T/C [36]: 36.9%

C=CC(=O)N1CCN(c2nc(=O)n(-c3c(C)ccnc3C(C)C)c3nc(-c4c(O)cccc4F)c(F)cc23)C(C)C1 (centres undefined) + CN(C)c1ccc(Nc2c3ccc(NC(=O)CCN4CCCC4)cc3nc3cc(NC(=O)CCN4CCCC4)ccc23)cc1
IC50 (second compound 0.0316 µM): > 10 µM | IC50 (second compound 0.1 µM): > 10 µM | IC50 (second compound 0.316 µM): > 10 µM | IC50 (second compound 1 µM): > 10 µM | IC50 (second compound 3.16 µM): > 10 µM | IC50 (second compound 10 µM): > 10 µM | viability, T/C [1]: 93.8% | viability, T/C [2]: 68.9% | viability, T/C [3]: 73.1% | viability, T/C [4]: 56.3% | viability, T/C [5]: 64.4% | viability, T/C [6]: 66.6% | viability, T/C [7]: 79.4% | viability, T/C [8]: 80.2% | viability, T/C [9]: 57% | viability, T/C [10]: 60.4% | viability, T/C [11]: 74.7% | viability, T/C [12]: 74.3% | viability, T/C [13]: 76.2% | viability, T/C [14]: 81.3% | viability, T/C [15]: 62.3% | viability, T/C [16]: 68.2% | viability, T/C [17]: 67.3% | viability, T/C [18]: 65.4% | viability, T/C [19]: 81.1% | viability, T/C [20]: 74% | viability, T/C [21]: 71.8% | viability, T/C [22]: 67.4% | viability, T/C [23]: 80% | viability, T/C [24]: 65% | viability, T/C [25]: 71.2% | viability, T/C [26]: 83.3% | viability, T/C [27]: 75.8% | viability, T/C [28]: 60.4% | viability, T/C [29]: 73% | viability, T/C [30]: 79.1% | viability, T/C [31]: 74.4% | viability, T/C [32]: 74.8% | viability, T/C [33]: 74.7% | viability, T/C [34]: 68.2% | viability, T/C [35]: 69.7% | viability, T/C [36]: 76.8%
